In this test the target is T1, MIF (Homo sapiens, UniProt P14174).
T1 sequence (P14174 2-115 limits assumed): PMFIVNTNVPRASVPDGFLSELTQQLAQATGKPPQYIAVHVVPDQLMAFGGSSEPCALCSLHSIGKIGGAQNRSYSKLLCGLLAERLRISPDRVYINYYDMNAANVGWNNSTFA
As to the kind of experiment: Competitive fluorescence polarization (FP) assay with tracer ligand B. In kind it is binding. The conditions noted are these: MIF Inhibition by Compounds of formula (Ia); Kd calculated from the IC50 of the competitive FP assay, fluorescent ligand B as tracer. As for the experimental part: Determination of the affinities for A and B by FP assay. Determination of Kd values for the tracers followed previously reported protocols for other proteins. Experiments are carried out by quadruplicates in three independent experiments. In a flat black bottom 96 well plate (Corning), add to the third column 300 μL of 1.8 μM MIF in FP buffer (20 mM HEPES, 150 mM NaCl, 0.01% Tween-20, pH 7.4). From this column, using a multichannel pipette make serial dilutions (1:2) into the following wells to a total volume of 150 μL. First column contains 200 μL buffer and is used as a blank, while second column contains 150 μL buffer. 2 μL of DMSO are added to each well to keep 1% of DMSO, followed by the addition of 16.7 nM ligand A or B (48 μL) except first column (blank). Fluorescence polarization is measured at λexc=485±20 nm, λem=535±25 nm using an Infinite F500 plate reader until no FP variation was observed (typically 1 h). From the lowest and highest FP values (tracer free and tracer fully bound to MIF) we calculated the fraction of ligand bound to the protein to ligand total (Lb/Lt) for each concentration of MIF.
Competitive FP assay. In order to calculate the Kd values of the unlabeled compounds, competitive assays were carried out in quadruplicates in three independent experiments. In a flatblack bottom 96 well plate (Corning) 140 μL of FP buffer are added to columns 3-12. First column contains 200 μL buffer (blank), while second column contains 150 μL FP buffer. 10 μL of 1.1 μM MIF are added to columns 3-12 followed by the addition of 2 μL of inhibitor in DMSO at 9 different concentrations. 2 μL of DMSO are added to columns 1-3. After 20 min of incubation at rt 48 μL of 16.7 nM ligand B are added to columns 2-12 and fluorescencepolarization was measured at λexc=485±20 nm, λem=535±25 nm for 1 h. Data are analyzed by a least-squares non-linear fit, generated using Prism 6 in order to determine the compound's IC50. Kd values for each inhibitor are calculated using the following equation based on the IC50, Kd of the tracer (K^t), total (Lt) and bound (Lb) tracer, as well as total MIF concentration (Pt). Samples of 4-IPP and Pontamine Sky Blue were purchased both from Tocris and Santa Cruz Biotechnology.
`COCCOc1ccc(N2Cc3ccc(O)cc3OC2=O)cc1` [Compound C1]: the dissociation constant (Kd) was 6 ± 1 nM.
Next, `COCCOCCOc1ccc(N2Cc3ccc(O)cc3OC2=O)cc1` [Compound C2]: 16 ± 5 nM; `O=C1Oc2cc(O)ccc2CN1c1ccc(OCCOCCN2CCOCC2)cc1` [Compound C3, 7-Hydroxy-3-(4-(2-(2-morpholinoethoxy)ethoxy)phenyl)-3,4-dihydro-2H-benzo[e][1,3]oxazin-2-one]: 23 ± 13 nM.
Next, `O=C(O)CCCOc1ccc(N2Cc3ccc(O)cc3OC2=O)cc1` [Compound C4]: 22 ± 8 nM; `O=C1Oc2cc(O)ccc2CN1c1ccc(C23CC4CC(CC(C4)C2)C3)cc1` [Compound C6]: 828 ± 44 nM.
For `O=C1Oc2cc(O)ccc2CN1c1ccc(OCCOCCOCCN2CCOCC2)cc1` [Compound C7], the dissociation constant Kd is 23 ± 6 nM.
In the case of `O=C1Oc2cc(O)ccc2CN1c1ccc(OCCN2CCOCC2)cc1` [Compound C8, 7-Hydroxy-3-(4-(2-morpholinoethoxy)phenyl)-3,4-dihydro-2H-benzo[e][1,3]oxazin-2-one], the dissociation constant Kd is 12 ± 1 nM.
As for `O=C1Oc2cc(O)ccc2CN1c1ccc(OCCOCCOc2cccc(N3CCOCC3)c2)cc1` [Compound C9], the dissociation constant Kd was 53 ± 7 nM.
Take `O=C1Oc2cc(O)ccc2CN1c1ccc(OCCOCCN2CCOc3ccccc32)cc1` [Compound C10, 3-(4-(2-(2-(2,3-Dihydro-4H-benzo[b][1,4]oxazin-4-yl)ethoxy)ethoxy)phenyl)-7-hydroxy-3,4-dihydro-2H-benzo[e][1,3]oxazin-2-one]: the equilibrium dissociation constant (Kd) is 16 ± 1 nM.

One may read the Kd as the equilibrium constant for the complex coming apart.

The values are drawn from patent US20230399303A1, “Macrophage Migration Inhibitory Factor Inhibitors, and Methods of Making and Using Same” (YALE UNIVERSITY, priority 2020, published 2023).
